In patent US6902915B2, “Heat-stable D-aminoacylase” (Daicel Chemical Industries, Ltd., priority 2000, dated 2005):
Entries after “also recorded” stand apart in the source; their conditions may differ.

Experiments:
[1] = test system: D-aminoacylase derived from Streptomyces thermonitrificans; assay: Effect of inhibitors against D-aminoacylase; type: biochemical; conditions: for Effect on enzyme activity (in words): SH reagents, 1 mM
Procedure: (§1) The measurement of the enzyme activity was proceeded according to the TNBS method (Tokuyama, S., Hatano, K., and Takahashi, T., Biosci.Biotech.Biochem. 58:24(1994)). That is, the sample containing the amino acid was added to 0.5 ml of solution (C) (0.1 M Na2B4O7) to give a total volume of 1.0 ml. […] of 0.11 M TNBS solution was added with stirring immediately. The absorbance at 420 nm was measured after 5 minutes.
(§2) Various metal salt and various enzyme inhibitors were added to a concentration of 1 mM to the enzyme reaction, and measurement of the enzyme reaction was performed. The enzyme reaction was conducted in 50 mM Tris/HCl (pH 7.5) buffer (total volume of 500 μl). For the metal salt added reaction, 1 mM of each metal salt or EDTA was added to the standard reaction composition solution without the enzyme and was preincubated at 30° C. for 5 minutes, then enzyme was added to react at 30° C. for 60 minutes. For the enzyme inhibitor added reaction, the standard reaction solution without the substrate was preincubated at 5 minutes, then after adding 1 mM of each inhibitor […] the substrate was added, and the enzyme reaction was performed at 30° C. for 100 minutes. The relative activity was calculated taking activity of enzyme actions without addition of inhibitors as 100%.

[2] = test system: D-aminoacylase derived from Streptomyces thermonitrificans; assay: Substrate specificity of D-aminoacylase; type: biochemical; conditions: for Catalysis of the reaction with the substrate (in words): N-acetyl amino acid substrates; for Activity / Relative activity: substrate 20 mM; for Activity: 1 mM cobalt chloride, 50 mM Tris/HCl pH 7.5, 30° C., 60 minutes; for Relative activity: activity against N-acetyl-D-methionine taken as 100%
Procedure: The activity of the D-aminoacylase of the present invention can be tested by the following procedure. For example, an enzyme solution (100 μl) is mixed and incubated with 50 mM Tris-HCl (pH 7.5) buffer (total volume: 500 μl) containing 20 mM substrate (various N-acetyl-D-amino acids) at 30° C. for 60 minutes. By measuring the amounts of amino acid synthesized by this reaction, enzymatic activities for respective substrates can be compared with each other. Assay for amino acid is performed by the TNBS (trinitrobenzenesulfonic acid) method or the HPLC method.
as §1
D-methionine was measured colorimetrically using L-methionine as a standard, and the amount of enzyme-producing 1 μmol of D-methionine in 1 minute at 30° C. was determined 1 unit.
The substrate specificity of the enzyme of the present invention was compared taking the enzyme activity against N-acetyl-D-methionine as 100%. N-acetyl-D-valine, N-acetyl-D-phenylalanine, N-acetyl-D-leucine, N-acetyl-D-tryptophan, N-acetvl-D-alanine N-acetyl-L-methionine, N-acetyl-L-leucine, and N-acetyl-L-valine was used as the substrate for comparison. The enzyme activity was measured in a standard reaction solution (total volume of 500 μl containing 100 μl of enzyme solution, and 400 μl of 50 mM Tris/HCl (pH 7.5) containing 20 mM of each substrate and 1 mM cobalt chloride at 30° C. for 60 minutes. The substrate specificity for N-acetyls of D-methionine, D-leucine, D-valine, D-tryptophan, D-alanine and D-phenylalanine is depicted in Table 2.

[3] = test system: D-aminoacylase derived from Streptomyces thermonitrificans; assay: Effect of metal salt for D-aminoacylase; type: biochemical; conditions: for Effect on enzyme activity (in words): 1 mM metal ion or EDTA
Procedure: as §1, §2

[4] = in vivo; cited from earlier work
[5] = 1 mM reagent, 50 mM Tris/HCl pH 7.5, 30° C., 100 minutes
[6] = 1 mM reagent, no addition = 100%
[7] = 1 mM metal salt or EDTA, 50 mM Tris/HCl pH 7.5, 30° C., 60 minutes
[8] = 1 mM metal salt or EDTA, no addition = 100%

Q: Which Activity [1, 5] does the source give for O[C@@H](CS)[C@@H](O)CS [DTT] here?
A: Its Activity is 34.8 mU/ml.

Q: And the Relative activity [1, 6]?
A: The Relative activity was 76%.

Q: With CSCC[C@@H](NC(C)=O)C(=O)O [N-Ac-D-Met, N-acetyl-D-methionine] as the compound, how does the “Catalysis of the reaction with the substrate (in words)” value (from here on “Catalysis of the reaction”) [2] read?
A: Its value is “efficiently catalyzes; also recorded: catalyze especially well”.

Q: And the Activity [2]?
A: Its Activity is 40.6 mU/ml.

Q: And the Relative activity [2]?
A: The Relative activity was 100%.

Q: Which “Catalysis of the reaction” value [2] does the source give for CC(=O)N[C@H](Cc1ccccc1)C(=O)O [N-Ac-D-Phe, N-acetyl-D-phenylalanine] here?
A: The value was “efficiently catalyzes; also recorded: catalyze especially well”.

Q: What about the Activity [2] of the same compound?
A: Its Activity is 62.2 mU/ml.

Q: What about the Relative activity [2] of the same compound?
A: The Relative activity was 144%.

Q: What does the source list for [Cl][Mn][Cl] [MnCl2]?
A: Activity [3, 7]: 21.0 mU/ml; Relative activity [3, 8]: 65%

Q: Which Activity [3, 7] does the source give for [Cl-].[K+] [KCl] here?
A: Its Activity is 30.9 mU/ml.

Q: And the Relative activity [3, 8]?
A: Its Relative activity is 93%.

Q: What does the source list for CC(=O)N[C@H](C)C(=O)O [N-Ac-D-Ala, N-acetyl-D-alanine]?
A: Catalysis of the reaction with the substrate (in words) [2]: catalyzes; also recorded: catalytic actions; Activity [2]: 16.9 mU/ml; Relative activity [2]: 40%

Q: Which results are given for O=C(O)CN(CCN(CC(=O)O)CC(=O)O)CC(=O)O [EDTA]?
A: Effect on enzyme activity (in words) [3]: inhibited; Activity [3, 7]: 9.4 mU/ml; Relative activity [3, 8]: 29%

Q: With CCN1C(=O)C=CC1=O [N-Ethylmaleimide] as the compound, how does the Activity [1, 5] read?
A: Its Activity is 1.3 mU/ml.

Q: What about the Relative activity [1, 6] of the same compound?
A: Its Relative activity is 3%.

Q: What about the “Effect on enzyme activity (in words)” value [1] of the same compound?
A: The value was “inhibited”.

Q: For [Ba+2].[Cl-].[Cl-] [BaCl2], which Activity [3, 7] is on record?
A: The Activity was 30.6 mU/ml.

Q: And the Relative activity [3, 8]?
A: Its Relative activity is 95%.

Q: With NO [Hydroxylammonium chloride] as the compound, how does the Relative activity [1] read?
A: The Relative activity was 102%.

Q: And the Activity [1, 5]?
A: Its Activity is 46.5 mU/ml.

Q: With O=S(=O)(F)Cc1ccccc1 [Phenylmethylsulfonyl fluoride] as the compound, how does the Activity [1, 5] read?
A: The Activity was 29.5 mU/ml.

Q: What about the Relative activity [1, 6] of the same compound?
A: The Relative activity was 70%.

Q: With O=C1CCC(N2C(=O)c3ccccc3C2=O)C(=O)N1 [L(S)-form, thalidomide] as the compound, how does the Teratogenic activity [4] read?
A: Its Teratogenic activity is “strong teratogenicity”.

Q: For [Cl-].[Cl-].[Zn+2] [ZnCl2], which Activity [3, 7] is on record?
A: Its Activity is 22.2 mU/ml.

Q: What about the Relative activity [3, 8] of the same compound?
A: Its Relative activity is 68%.

Q: What does the source list for [F-].[Na+] [NaF]?
A: Activity [1, 5]: 45.2 mU/ml; Relative activity [1, 6]: 99%

Q: With CC(=O)N[C@@H](Cc1ccccc1)C(=O)O [N-Ac-L-Phe, N-acetyl-L-phenylalanine] as the compound, how does the “Catalysis of the reaction” value [2] read?
A: The value was “didn't catalyze; also recorded: substantially no catalytic activity”.

Q: What about the Activity [2] of the same compound?
A: The Activity was 0 mU/ml.

Q: What about the Relative activity [2] of the same compound?
A: The Relative activity was 0%.

Q: With O=C(NNc1ccccc1)NNc1ccccc1 [1,5-Diphenylcarbonylhydrazide] as the compound, how does the Activity [1, 5] read?
A: Its Activity is 40.5 mU/ml.

Q: And the Relative activity [1, 6]?
A: The Relative activity was 89%.

Q: For CC(=O)N[C@H](C(=O)O)C(C)C [N-Ac-L-Val, N-acetyl-L-valine], which “Catalysis of the reaction” value [2] is on record?
A: The value was “didn't catalyze; also recorded: substantially no catalytic activity”.

Q: What about the Activity [2] of the same compound?
A: Its Activity is 0 mU/ml.

Q: And the Relative activity [2]?
A: Its Relative activity is 0%.

Q: Which results are given for O=S(=O)([O-])[O-].O=S(=O)([O-])[O-].O=S(=O)([O-])[O-].[Al+3].[Al+3] [Al2(SO4)2]?
A: Activity [3, 7]: 25.2 mU/ml; Relative activity [3, 8]: 90%

Q: Which Activity [1, 5] does the source give for O=C(O)c1cc[c]([Hg][Cl])cc1 [p-Chloromercuribenzoic acid] here?
A: The Activity was 2.1 mU/ml.

Q: What about the Relative activity [1, 6] of the same compound?
A: The Relative activity was 4%.

Q: And the “Effect on enzyme activity (in words)” value [1]?
A: Its value is “inhibited”.

Q: For [Cl][Ni][Cl] [NiCl2], which Activity [3, 7] is on record?
A: Its Activity is 15.9 mU/ml.

Q: What about the Relative activity [3, 8] of the same compound?
A: Its Relative activity is 51%.

Q: For CSCC[C@H](NC(C)=O)C(=O)O [N-Ac-L-Met, N-acetyl-L-methionine], which “Catalysis of the reaction” value [2] is on record?
A: The value was “didn't catalyze; also recorded: substantially no catalytic activity”.

Q: What about the Activity [2] of the same compound?
A: Its Activity is 0 mU/ml.

Q: And the Relative activity [2]?
A: The Relative activity was 0%.

Q: With [Cl][Sn][Cl] [SnCl2] as the compound, how does the Activity [3, 7] read?
A: Its Activity is 32.8 mU/ml.

Q: And the Relative activity [3, 8]?
A: Its Relative activity is 102%.

Q: Which Activity [3, 7] does the source give for [Cl][Fe][Cl] [FeCl2] here?
A: The Activity was 20.4 mU/ml.

Q: And the Relative activity [3, 8]?
A: The Relative activity was 63%.

Q: With [Cl][Co][Cl] [CoCl2, cobalt chloride] as the compound, how does the “Effect on enzyme activity (in words)” value [3] read?
A: The value was “increased”.

Q: And the Activity [3, 7]?
A: The Activity was 54.4 mU/ml.

Q: What about the Relative activity [3, 8] of the same compound?
A: The Relative activity was 168%.

Q: Which results are given for c1ccc(-c2ccccn2)nc1 [2,2′-Bipyridyl]?
A: Activity [1, 5]: 21.9 mU/ml; Relative activity [1, 6]: 49%

Q: For [Ca+2].[Cl-].[Cl-] [CaCl2], which Activity [3, 7] is on record?
A: Its Activity is 31.1 mU/ml.

Q: What about the Relative activity [3, 8] of the same compound?
A: Its Relative activity is 97%.

Q: With [Cl][Fe]([Cl])[Cl] [FeCl3] as the compound, how does the Activity [3, 7] read?
A: The Activity was 22.0 mU/ml.

Q: What about the Relative activity [3, 8] of the same compound?
A: The Relative activity was 68%.

Q: With [I-].[K+] [KI] as the compound, how does the Activity [1, 5] read?
A: Its Activity is 11.3 mU/ml.

Q: And the Relative activity [1, 6]?
A: Its Relative activity is 24%.

Q: Which Relative activity [3] does the source give for [Cl-].[Na+] [NaCl] here?
A: Its Relative activity is 103%.

Q: And the Activity ([3]; pH 7.5)?
A: Its Activity is 33.1 mU/ml.

Q: What does the source list for [Cl-].[Cl-].[Mg+2] [MgCl2]?
A: Activity [3, 7]: 35.2 mU/ml; Relative activity [3, 8]: 109%

Q: For CC(=O)N[C@H](CC(C)C)C(=O)O [N-Ac-D-Leu, N-acetyl-D-leucine], which “Catalysis of the reaction” value [2] is on record?
A: The value was “catalyzes; also recorded: catalytic actions”.

Q: What about the Activity [2] of the same compound?
A: Its Activity is 8.93 mU/ml.

Q: And the Relative activity [2]?
A: The Relative activity was 21%.

Q: What does the source list for CC(=O)N[C@H](Cc1c[nH]c2ccccc12)C(=O)O [N-Ac-D-Trp, N-acetyl-D-tryptophan]?
A: Catalysis of the reaction with the substrate (in words) [2]: efficiently catalyzes; also recorded: catalyze especially well; Activity [2]: 48.4 mU/ml; Relative activity [2]: 105%

Q: For O=C1CCC(N2C(=O)c3ccccc3C2=O)C(=O)N1 [D(R)-form thalidomide, thalidomide], which Teratogenic activity [4] is on record?
A: The Teratogenic activity was “no teratogenic activity”.

Q: Which Relative activity [1] does the source give for O=C(O)CI [Monoiodoacetic acid] here?
A: Its Relative activity is 84%.

Q: What about the Activity ([1]; pH 7.5) of the same compound?
A: Its Activity is 37.9 mU/ml.

Q: What does the source list for [Cl][Cu][Cl] [CuCl2]?
A: Effect on enzyme activity (in words) [3]: markedly inhibited; Activity [3, 7]: 1.0 mU/ml; Relative activity [3, 8]: 3%

Q: Which “Catalysis of the reaction” value [2] does the source give for CC(=O)N[C@@H](C(=O)O)C(C)C [N-Ac-D-Val, N-acetyl-D-valine] here?
A: Its value is “catalyzes; also recorded: catalytic actions”.

Q: And the Activity [2]?
A: The Activity was 14.7 mU/ml.

Q: And the Relative activity [2]?
A: The Relative activity was 40%.
